# Experimental data published in patent US20260007613A1, “LONG-ACTING LOW-TOXICITY NOVEL CATIONIC LIPID COMPOUNDS AND COMPOSITION THEREOF” (BEIJING YOUCAREKECHUANG PHARMACEUTICAL TECHNOLOGY CO., LTD., priority 2023, published 2026).
# Legend:
# [1] = tested on: 293T cells; assay: Fluorescent detection of Fluc-mRNA (cell transfection efficiency of LNP formulations); type: cell-based
# Experimental: (§1) Cell recovery and passage: 293T cells were recovered, cultured in a culture dish, and passaged to the required number of cells.
# (§2) Seeding plate: The cells in the culture dish were digested and counted. Cells were spread in a 96-well plate at 10,000 cells per well and in a 12-well plate at 150,000 cells per well. Cells were cultured overnight until the cells adhered to the wall.
# (§3) Cell recovery and passage: the method was the same as in Example 3.
# (§4) Seeding plate: the method was the same as in Example 3.
# An LNP formulation containing […] of Fluc-mRNA (the carrier components of the LNP formulation were cationic lipid, neutral lipid, structured lipid and polymer-conjugated lipid with a molar ratio of 49:10:39.5:1.5, wherein the cationic lipid was listed in Table 1) was added to the cell culture medium of a 96-well plate, and further incubated for 24 hours. The corresponding reagent was added according to the instructions of the […] Luciferase Assay Kit, and the fluorescence expression intensity of each well was detected by an IVIS fluorescence detection system. This test verified the transfection efficiencies of LNP formulations in cells, see Tables 4-7 for specific test results.
# [2] = tested on: female BALB/C mice; assay: Live imaging in mice: protein expression of Fluc-mRNA delivered by LNP formulations; type: in vivo
# Experimental: In addition, the protein expression and duration of mRNA in mice delivered by the cationic lipid delivery carriers designed were also verified.
# The LNP formulation containing […] Fluc-mRNA was injected intramuscularly into female BALB/C mice aged 4 to 6 weeks old and weighed 17 to 19 g, and the mice were intraperitoneally injected with fluorescent imaging substrate at specific time points after administration (6 h, 24 h, 48 h and 7 d), where the mice were free to move for 5 minutes, and then the average radiation intensity (corresponding to fluorescence expression intensity) of the protein expression of the mRNA carried by the LNP in the mice was detected by the IVIS Spectrum small animal live imaging device.
# [3] = tested on: 293T cells; assay: Cell survival rate determination (CCK-8); type: cell-based; settings: LNP formulation of Fluc-mRNA, 24 hours, CCK-8
# Experimental: as §1, §2, §3, §4
# An LNP formulation containing […] of Fluc-mRNA (the carrier components of the LNP formulation were cationic lipid, neutral lipid, structured lipid and polymer-conjugated lipid with a molar ratio of 49:10:39.5:1.5, wherein the cationic lipid was listed in Table 1) and the formulation of Lipofectamine 3000 were added to the cell culture medium of a 96-well plate, and further cultivated for 24 hours. 10 μL of CCK-8 solution was then added to each well, and the culture plate was incubated in an incubator for 1 hour. The absorbance at 450 nm was measured by a microplate reader.
# Cell survival rate can represent the toxicity of cationic lipids to cells. The higher the cell survival rate, the lower the toxicity to cells.
# [4] = Particle size and polydispersity index (PDI) of lipid nanoparticles by dynamic light scattering; type: physicochemical; settings: LNP formulation prepared from the cationic lipid, 25° C.
# Experimental: The particle size and polydispersity index (PDI) were determined by dynamic light scattering using Malvern laser particle size analyzer.
# 10 μL of the liposome solution was weighed, diluted to 1 mL with RNase-free deionized water, and added to the sample pool. Each sample was measured in triplicate. The measurement conditions were: […] scattering angle, and 25° C.
structure (smiles),measurement,setting,value
"CCCCCCCCCCC(CCCCCCCCCC)CCCOC(=O)CCCN(CCCC(=O)OCCCC(CCCCCCCCCC)CCCCCCCCCC)C[C@H](O)CN(CCO)CCO [YK-321, (S)-bis(4-decyltetradecyl)-4,4′-((3-(bis(2-hydroxyethyl)amino)-2-hydroxypropyl)azanediyl)dibutyrate]",Relative light unit (RLU),"[1]; LNP formulation of Fluc-mRNA, 96-well plate, 24 hours",1403416 RLU
same,Multiples (YK-305),[1]; RLU of YK-305 / RLU of the lipid of the line,18.33
same,Multiples (YK-310),[1]; RLU of YK-310 / RLU of the lipid of the line,18.38
same,Multiples (YK-312),[1]; RLU of YK-312 / RLU of the lipid of the line,14.36
same,Multiples (YK-318),"[1]; RLU of YK-318 / RLU of the lipid of the line, Tables 5, 7, 11",7.97
same,Multiples (YK-319),"[1]; RLU of YK-319 / RLU of the lipid of the line, Tables 5, 7, 11",17.43
same,Ratio relative to SM-102,"[1]; RLU of the lipid / RLU of SM-102, times that of SM-102",0.87
same,average radiation intensity,[2]; 6 h after intramuscular injection,615600
same,average radiation intensity,[2]; 24 h after intramuscular injection,101230
same,average radiation intensity,[2]; 48 h after intramuscular injection,36565
same,average radiation intensity,[2]; 7 d after intramuscular injection,6586
same,Cell survival rate (%),[3],72.34%
same,PDI (%),[4],39.1%
same,Particle size (nm),[4],182 nm
